# “And” between values parts separate entries of the source, which are not always exact repeats. Identical values can stand only once. Counter-ions that a name gives are not always drawn. The source made the active and inactive calls.
# What was measured:
# [1] = Luminescence-based cell-based high throughput dose response assay to identify activators of the DAF-12 from the parasite S. stercoralis (ssDAF-12).; type: functional
# [2] = molecular target: T1, Rac GTPase-activating protein 1 (Homo sapiens, UniProt Q9H0H5); assay: MgcRacGAP GTPase-activating activity inhibitors, confirmation, biochemical, ADP Hunter fluorescence, primary and confirmatory (AID 624330); type: functional
# T1 sequence (Q9H0H5 whole entry): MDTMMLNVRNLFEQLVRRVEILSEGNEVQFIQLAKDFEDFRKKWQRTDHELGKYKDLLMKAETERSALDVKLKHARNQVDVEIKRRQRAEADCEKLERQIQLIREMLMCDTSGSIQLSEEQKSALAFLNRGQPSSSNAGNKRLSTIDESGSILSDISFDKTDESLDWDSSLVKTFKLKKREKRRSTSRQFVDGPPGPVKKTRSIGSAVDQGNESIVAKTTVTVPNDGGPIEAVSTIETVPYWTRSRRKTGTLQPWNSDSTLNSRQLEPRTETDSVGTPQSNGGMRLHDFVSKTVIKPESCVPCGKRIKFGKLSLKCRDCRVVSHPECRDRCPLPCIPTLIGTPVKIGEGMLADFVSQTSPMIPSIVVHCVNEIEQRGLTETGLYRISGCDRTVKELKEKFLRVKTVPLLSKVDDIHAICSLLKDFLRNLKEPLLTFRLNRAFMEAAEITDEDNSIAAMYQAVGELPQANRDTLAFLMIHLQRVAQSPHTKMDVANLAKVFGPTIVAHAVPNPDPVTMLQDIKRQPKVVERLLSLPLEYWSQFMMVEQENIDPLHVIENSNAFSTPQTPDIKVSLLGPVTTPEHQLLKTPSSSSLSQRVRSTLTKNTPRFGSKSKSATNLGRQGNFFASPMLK
# H4 = assay: Luminescence Cell-Based Dose Response HTS to Identify Activators of 5'UTR Stem-Loop Driven Prion Protein mRNA Translation in H4 Neuroglioblastoma Cells. [Related pubchem assays: 1829 (Project Summary), 1814 (Primary HTS)]; type: functional; conditions: Homo sapiens
# [3] = molecular target: T2, Oxysterols receptor LXR-beta (Homo sapiens, UniProt P55055); assay: LXR agonists, Gal4 luciferase reporter, dose response, counter-screen for ssDAF-12 agonist project, cell-based, luminescence, HEK293, S. stercoralis campaign (AID 720737); type: functional; conditions: read-out: IC50 (the source's name)
# T2 sequence (P55055 whole entry): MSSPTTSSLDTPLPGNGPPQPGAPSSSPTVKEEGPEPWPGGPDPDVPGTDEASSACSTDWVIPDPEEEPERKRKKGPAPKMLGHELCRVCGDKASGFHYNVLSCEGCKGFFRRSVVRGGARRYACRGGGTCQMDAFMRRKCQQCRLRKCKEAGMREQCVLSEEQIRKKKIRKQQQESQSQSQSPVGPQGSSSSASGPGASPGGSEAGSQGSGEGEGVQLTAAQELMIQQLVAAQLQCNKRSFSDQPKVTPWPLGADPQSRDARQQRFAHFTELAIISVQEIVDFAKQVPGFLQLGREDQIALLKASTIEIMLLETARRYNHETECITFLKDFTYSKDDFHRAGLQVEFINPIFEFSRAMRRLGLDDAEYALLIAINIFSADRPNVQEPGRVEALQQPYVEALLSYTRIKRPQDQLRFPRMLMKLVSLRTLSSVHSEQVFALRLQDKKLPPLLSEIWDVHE
# Large T antigen = Large T antigen (Simian virus 40, UniProt P03070); type: functional, Betapolyomavirus macacae;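 further: Confirmatory-stage PubChem screen for compounds that inhibit SV40 T antigen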
# Large T antigen, sequence (P03070 whole entry): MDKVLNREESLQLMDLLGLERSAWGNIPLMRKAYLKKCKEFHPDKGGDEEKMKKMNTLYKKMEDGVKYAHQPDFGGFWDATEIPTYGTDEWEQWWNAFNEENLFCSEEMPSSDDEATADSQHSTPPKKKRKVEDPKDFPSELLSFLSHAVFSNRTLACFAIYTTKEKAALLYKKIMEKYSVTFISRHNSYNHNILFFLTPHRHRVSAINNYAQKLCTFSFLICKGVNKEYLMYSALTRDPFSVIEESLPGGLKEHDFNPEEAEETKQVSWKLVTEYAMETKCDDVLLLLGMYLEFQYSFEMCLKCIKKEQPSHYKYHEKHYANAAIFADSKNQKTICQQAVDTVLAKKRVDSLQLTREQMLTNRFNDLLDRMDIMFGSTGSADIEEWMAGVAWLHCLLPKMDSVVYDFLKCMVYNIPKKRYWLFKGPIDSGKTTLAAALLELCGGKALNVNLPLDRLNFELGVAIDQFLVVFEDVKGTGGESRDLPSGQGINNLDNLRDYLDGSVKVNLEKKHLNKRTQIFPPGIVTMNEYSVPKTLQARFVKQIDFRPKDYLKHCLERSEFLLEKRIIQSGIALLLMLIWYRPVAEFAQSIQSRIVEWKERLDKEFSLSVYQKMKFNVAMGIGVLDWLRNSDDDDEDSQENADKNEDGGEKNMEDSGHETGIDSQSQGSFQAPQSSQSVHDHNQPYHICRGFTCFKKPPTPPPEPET
# [4] = Luminescence Cell-Based Dose Response HTS to Identify Activators of Luciferase Translation or Activity in H4 […] Cells. [Related pubchem assays: 1829 (Project Summary), 1814 (Primary HTS)]; type: functional
# [5] = HeLa cell cytotoxicity, dose response, cytotoxicity control for MgcRacGAP inhibitor project (AID 624300); type: functional
# [6] = molecular target: T3, DNA repair protein RAD52 homolog (Homo sapiens, UniProt P43351); type: functional, biochemical
# T3 sequence (P43351 whole entry): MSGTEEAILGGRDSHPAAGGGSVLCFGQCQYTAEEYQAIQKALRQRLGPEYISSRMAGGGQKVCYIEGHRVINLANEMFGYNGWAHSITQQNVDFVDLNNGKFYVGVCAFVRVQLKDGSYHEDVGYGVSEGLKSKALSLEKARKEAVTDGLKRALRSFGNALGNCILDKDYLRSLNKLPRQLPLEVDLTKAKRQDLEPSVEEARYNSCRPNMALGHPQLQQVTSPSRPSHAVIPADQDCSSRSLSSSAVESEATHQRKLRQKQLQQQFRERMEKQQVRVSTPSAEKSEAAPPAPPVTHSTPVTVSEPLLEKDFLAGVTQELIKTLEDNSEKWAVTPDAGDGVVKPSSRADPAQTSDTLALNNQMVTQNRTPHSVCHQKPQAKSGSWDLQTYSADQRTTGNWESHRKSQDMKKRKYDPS
# H9c2 = assay: cells; type: functional, cell-based; conditions: Rattus norvegicus, H9c2, Myocardium;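 further: confirmatory concentration-response retest of ultra-high-throughput screening hits for modulation of myocardial damage; cell death induced by hydrogen peroxide oxidative stress; compound pretreatment for 60 min then peroxide exposure for 2 h; potency is for protecting the cells against peroxide damage rather than for killing them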
# [7] = molecular target: T4, DNA repair and recombination protein RAD54-like (Homo sapiens, UniProt Q92698); assay: inhibitors of human RAD54 branch migration, confirmation, biochemical, fluorescence, cherry-picked samples, dose series (AID 651657); type: functional
# T4 sequence (Q92698 whole entry): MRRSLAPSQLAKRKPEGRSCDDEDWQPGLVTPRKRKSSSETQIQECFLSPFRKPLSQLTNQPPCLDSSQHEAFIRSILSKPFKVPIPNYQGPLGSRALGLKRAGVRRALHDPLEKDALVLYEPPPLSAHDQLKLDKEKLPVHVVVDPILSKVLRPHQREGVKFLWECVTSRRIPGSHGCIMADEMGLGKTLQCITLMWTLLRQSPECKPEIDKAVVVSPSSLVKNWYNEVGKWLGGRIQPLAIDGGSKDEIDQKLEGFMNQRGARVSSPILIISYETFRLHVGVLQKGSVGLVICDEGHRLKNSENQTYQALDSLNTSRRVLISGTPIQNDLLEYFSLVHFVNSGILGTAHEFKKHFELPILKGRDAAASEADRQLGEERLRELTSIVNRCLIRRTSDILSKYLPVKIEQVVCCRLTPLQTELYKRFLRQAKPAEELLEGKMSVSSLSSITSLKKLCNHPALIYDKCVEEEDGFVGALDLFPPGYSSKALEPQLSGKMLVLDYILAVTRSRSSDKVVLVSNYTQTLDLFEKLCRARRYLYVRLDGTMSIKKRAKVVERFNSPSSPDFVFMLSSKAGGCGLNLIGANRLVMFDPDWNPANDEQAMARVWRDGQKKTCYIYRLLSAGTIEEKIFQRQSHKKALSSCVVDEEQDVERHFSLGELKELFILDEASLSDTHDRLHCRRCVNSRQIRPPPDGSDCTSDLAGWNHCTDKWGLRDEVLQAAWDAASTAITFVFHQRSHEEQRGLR
# Mu-type opioid receptor = Mu-type opioid receptor (Homo sapiens, UniProt P35372); type: functional, cell-based;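 further: U2OS cells with beta-arrestin recruitment to OPRM1 by beta-gal complementation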
# Mu-type opioid receptor, sequence (P35372 whole entry): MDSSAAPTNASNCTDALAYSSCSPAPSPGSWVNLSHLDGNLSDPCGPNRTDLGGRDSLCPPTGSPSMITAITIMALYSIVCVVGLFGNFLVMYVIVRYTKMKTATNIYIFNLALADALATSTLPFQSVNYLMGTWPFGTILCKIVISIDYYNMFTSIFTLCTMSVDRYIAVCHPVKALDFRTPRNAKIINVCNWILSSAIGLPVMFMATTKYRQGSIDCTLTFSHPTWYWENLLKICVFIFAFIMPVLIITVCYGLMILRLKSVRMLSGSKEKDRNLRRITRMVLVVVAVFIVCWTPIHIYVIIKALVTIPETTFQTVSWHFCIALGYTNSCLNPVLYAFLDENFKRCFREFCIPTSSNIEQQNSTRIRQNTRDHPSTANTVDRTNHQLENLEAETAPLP
# [8] = molecular target: 5-hydroxytryptamine receptor 2A (Mus musculus, UniProt P35363); type: functional, cell-based;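 further: CHO-K1 cells with tagged receptor and beta-arrestin; agonist potency measured as compound-induced activation of the receptor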
# 5-hydroxytryptamine receptor 2A, sequence (P35363 whole entry): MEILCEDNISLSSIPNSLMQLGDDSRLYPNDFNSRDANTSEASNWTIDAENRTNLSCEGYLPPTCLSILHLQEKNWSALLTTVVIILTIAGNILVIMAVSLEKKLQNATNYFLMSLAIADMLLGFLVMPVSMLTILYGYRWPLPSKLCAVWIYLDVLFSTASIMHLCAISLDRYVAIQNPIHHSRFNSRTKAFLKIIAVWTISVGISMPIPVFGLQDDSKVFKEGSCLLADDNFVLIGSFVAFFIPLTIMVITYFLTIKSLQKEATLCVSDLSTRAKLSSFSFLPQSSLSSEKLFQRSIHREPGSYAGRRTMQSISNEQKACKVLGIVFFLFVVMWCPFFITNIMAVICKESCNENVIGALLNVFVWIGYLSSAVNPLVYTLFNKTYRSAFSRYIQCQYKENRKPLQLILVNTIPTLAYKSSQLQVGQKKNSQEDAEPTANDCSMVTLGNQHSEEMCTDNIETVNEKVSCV
# [9] = molecular target: T5, Trace amine-associated receptor 1 (Homo sapiens, UniProt Q96RJ0); assay: Fluorescence-based cell-based high throughput dose response assay to identify agonists of the human trace amine associated receptor 1 (TAAR1).; type: functional
# T5 sequence (Q96RJ0 whole entry): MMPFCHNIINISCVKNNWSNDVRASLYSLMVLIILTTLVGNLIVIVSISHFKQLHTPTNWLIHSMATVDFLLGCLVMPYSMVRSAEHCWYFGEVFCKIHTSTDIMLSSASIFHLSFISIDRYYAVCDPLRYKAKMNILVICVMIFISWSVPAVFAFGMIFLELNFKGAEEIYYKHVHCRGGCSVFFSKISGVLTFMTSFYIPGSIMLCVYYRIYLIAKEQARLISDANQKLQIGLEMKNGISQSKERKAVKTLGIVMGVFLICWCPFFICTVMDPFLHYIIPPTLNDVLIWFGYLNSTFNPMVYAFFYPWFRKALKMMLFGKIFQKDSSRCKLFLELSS
# [10] = molecular target: T5, Trace amine-associated receptor 1; assay: Counterscreen for agonists of the human trace amine associated receptor 1 (hTAAR1): Fluorescence-based cell-based high throughput dose response assay to identify hTAAR1 agonist that also desensitize TAAR1 receptor response.; type: functional
# cells [11] = type: functional, cell-based
# cells [12] = type: functional, cell-based; remark: listed apart in the source
# [13] = Luminescence Cell-Based Dose Confirmation HTS to Identify Activators of 5'UTR Stem-Loop Driven Alpha-Synuclein mRNA Translation in H4 Neuroglioblastoma Cells. [Related pubchem assays: 1829 (Project Summary), 1814 (Primary HTS)]; type: functional
# [14] = molecular target: T6, Corticotropin-releasing factor receptor 2/Corticotropin-releasing factor-binding protein (Homo sapiens, UniProt P24387+Q13324); assay: activators of CRF receptor 2 with binding protein – uHTS hits, confirmation (AID 602473); type: functional; conditions: read-out: EC50_Mean
# T6 sequence (Q13324 whole entry): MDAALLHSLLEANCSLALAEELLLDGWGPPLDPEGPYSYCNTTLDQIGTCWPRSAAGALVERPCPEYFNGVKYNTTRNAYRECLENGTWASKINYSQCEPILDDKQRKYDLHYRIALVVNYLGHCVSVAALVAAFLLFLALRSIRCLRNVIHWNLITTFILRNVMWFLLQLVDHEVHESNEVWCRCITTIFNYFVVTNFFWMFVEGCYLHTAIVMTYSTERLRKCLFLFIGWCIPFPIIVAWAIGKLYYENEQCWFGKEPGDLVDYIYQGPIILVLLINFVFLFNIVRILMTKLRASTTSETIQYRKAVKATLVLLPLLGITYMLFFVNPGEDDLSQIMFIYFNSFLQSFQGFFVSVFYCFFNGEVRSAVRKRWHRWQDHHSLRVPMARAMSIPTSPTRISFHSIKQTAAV
# T6 sequence (P24387 whole entry): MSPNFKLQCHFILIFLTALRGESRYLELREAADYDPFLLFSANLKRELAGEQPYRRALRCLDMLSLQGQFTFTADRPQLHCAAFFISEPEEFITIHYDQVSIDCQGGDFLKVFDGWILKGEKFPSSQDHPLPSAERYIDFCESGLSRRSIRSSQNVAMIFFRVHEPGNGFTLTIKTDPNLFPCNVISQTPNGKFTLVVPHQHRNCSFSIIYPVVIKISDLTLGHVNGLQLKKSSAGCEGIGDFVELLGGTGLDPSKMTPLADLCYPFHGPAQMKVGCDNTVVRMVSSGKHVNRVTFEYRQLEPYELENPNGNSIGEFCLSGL
# [15] = CRF-BP/CRF-R2 complex antagonists, dose response, cell-based, uHTS hits, 384-well (AID 651639); type: functional, Homo sapiens; conditions: read-out: IC50_Mean
# [16] = molecular target: T6, Corticotropin-releasing factor receptor 2/Corticotropin-releasing factor-binding protein; assay: Dose Response confirmation of uHTS hits for small molecule antagonists of the CRF-binding protein and CRF-R2 receptor complex.; type: functional; conditions: read-out: IC50_Mean
# [17] = ADAM10 protease inhibitors, dose response, selectivity assay for ADAM17 exosite inhibitor project, biochemical, FRET peptide substrate, recombinant human ADAM10 (AID 743259);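 further: ADAM10 enzyme cleaving a FRET peptide substrate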
# [18] = molecular target: Disintegrin and metalloproteinase domain-containing protein 17 (Homo sapiens, UniProt P78536); assay: exosite inhibitors of ADAM17, dose response, biochemical (AID 743260)
# Disintegrin and metalloproteinase domain-containing protein 17, sequence (P78536 whole entry, the tested form may be a part): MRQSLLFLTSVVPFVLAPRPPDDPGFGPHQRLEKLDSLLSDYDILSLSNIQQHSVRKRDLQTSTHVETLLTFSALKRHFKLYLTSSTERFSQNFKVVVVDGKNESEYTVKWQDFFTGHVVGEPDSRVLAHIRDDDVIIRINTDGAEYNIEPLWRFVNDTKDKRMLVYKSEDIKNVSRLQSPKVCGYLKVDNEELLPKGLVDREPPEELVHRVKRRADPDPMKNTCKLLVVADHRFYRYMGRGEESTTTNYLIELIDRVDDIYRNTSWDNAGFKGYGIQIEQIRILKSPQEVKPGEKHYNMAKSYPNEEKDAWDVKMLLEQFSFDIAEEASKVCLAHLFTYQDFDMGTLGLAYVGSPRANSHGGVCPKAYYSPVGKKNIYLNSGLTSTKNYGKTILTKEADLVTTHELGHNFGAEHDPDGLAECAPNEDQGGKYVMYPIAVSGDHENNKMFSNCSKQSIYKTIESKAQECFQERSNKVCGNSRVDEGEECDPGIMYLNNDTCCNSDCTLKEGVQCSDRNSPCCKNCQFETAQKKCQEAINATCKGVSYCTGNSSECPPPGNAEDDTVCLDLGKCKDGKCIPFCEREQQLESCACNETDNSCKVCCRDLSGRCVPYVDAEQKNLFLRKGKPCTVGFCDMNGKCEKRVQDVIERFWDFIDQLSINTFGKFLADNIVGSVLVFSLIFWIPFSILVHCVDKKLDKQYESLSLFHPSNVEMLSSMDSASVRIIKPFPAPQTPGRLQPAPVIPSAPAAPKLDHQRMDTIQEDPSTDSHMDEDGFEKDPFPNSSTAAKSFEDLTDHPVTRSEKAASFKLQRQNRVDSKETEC
smiles,measurement,setting,value
CCOc1cc(/C=N/NC(=O)Nc2ccccc2)ccc1O,IC50,[1],> 67.6 µM (inactive)
same,IC50,[2],32.5 µM (active)
same,EC50,H4,1.94 µM (active)
same,EC50,[3],> 67.6 µM (inactive)
same,IC50,Large T antigen,> 100 µM (active)
same,EC50,[4],16.6 µM (active)
same,CC50,[5],100 µM (active)
COc1cc2nc(Nc3ccc(F)cc3)nc(N)c2cc1OC,AC50,[6],7.26 µM (active)
same,IC50,H9c2,> 79 µM (inactive)
same,AC50,[7],49.9 µM (active)
O=C(c1ccco1)N1CCN(CCCCN2C(=O)c3ccccc3C2=O)CC1,EC50,Mu-type opioid receptor,92.5 µM (inactive)
same,EC50,[8],76.1 µM (inactive)
O=C(NCCc1ccccc1)c1nc2nc(-c3cccs3)cc(C(F)(F)F)n2n1,EC50,[9],346 nM (active)
same,IC50,[10],1.91 µM (active)
same,EC50,cells [11],> 29.9 µM (inactive)
same,IC50,cells [12],24.1 µM (inactive)
COc1cc(C(C)=O)ccc1OCC(O)CN1CCN(c2ccccn2)CC1 (stereo unspecified),EC50,Mu-type opioid receptor,92.5 µM (inactive)
same,EC50,[8],0.321 µM (active)
CC1CCc2sc3nc(N4CCN(CCO)CC4)n4ncnc4c3c2C1 (stereo unspecified),EC50,H4,34.7 µM (active)
same,EC50,[4],8.04 µM (active)
same,EC50,[13],24.7 µM (active)
same,AC50,[7],34.7 µM (active)
CCN1C(=O)/C(=C2/C=Cc3cc(C)ccc3N2CC)N(C)C1=S,IC50,[2],60.4 µM (active)
same,CC50,[5],100 µM (active)
CC(=O)NC(Cc1cccc(C)c1)C(=O)NC1CCN(c2ncccc2[N+](=O)[O-])CC1 (stereo unspecified),EC50,[14],> 53 µM (inactive)
same,IC50,[15],18.8 µM (active)
same,IC50,[16],5.13 µM (active)
Clc1ccc(CN2CCN(c3ncccn3)CC2)c(Cl)c1,EC50,Mu-type opioid receptor,92.5 µM (inactive)
same,EC50,[8],1.29 µM (active)
COc1ccccc1-c1ccc(SCc2cccc(F)c2)nn1,EC50,[14],> 53 µM (inactive)
same,IC50,[15],> 20 µM (inactive)
same,IC50,[16],< 0.368 µM (active)
CC(N)Cc1ccc(O)cc1 (stereo unspecified) [HYDROXYAMPHETAMINE HYDROBROMIDE],EC50,[9],1.71 µM (active) and 1.18 µM (active)
same,IC50,[10],11.8 µM (inactive) and 5.84 µM (active)
same,EC50,cells [11],> 29.9 µM (inactive)
same,IC50,cells [12],> 29.9 µM (inactive)
COC(=O)c1ccc(CN2C(=O)C(C)N(C(=O)c3c(F)cccc3F)c3ccccc32)cc1 (stereo unspecified),IC50,[17],> 69.5 µM (inactive)
same,EC50,[14],> 53 µM (inactive)
same,IC50,[15],17 µM (active)
same,IC50,[18],> 69.5 µM (inactive)
same,IC50,[16],< 0.368 µM (active)
